Results on one compound are retold here after US9464972B2, “Apparatus and procedure for in vitro measurement of a substance, nicotine, released from a smokeless tobacco product” (priority 2011, dated 2016).

The conditions of the series: for nicotine release (accumulated, of total nicotine): artificial saliva Table 3, pH 5.8, 37° C., flow 4 ml/min. The text has this: The nicotine extraction and collection procedure include the following steps:
1. Add fluid (140) to the reservoir (120). Fluid (140) is artificial saliva where the extraction is nicotine from a smokeless tobacco product;
2. Set the bath (200) and the heating or cooling element (220) temperature control (230) to the temperature desired as established from the in vivo environment. Where the fluid (140) is artificial saliva and, for the measurement of nicotine in a smokeless tobacco product, set the temperature to 37° C.;
3. Start the fluid pump (180) and set the pump to the desired pump rate.
4. When the temperature and flow rate are stabilized, add the product sample (330) to extraction bottle interior (304) onto the screen mesh (325). Where the product sample is for a smokeless tobacco product sample (330) the product sample (330) is a smokeless tobacco sachet; the product sample (330) is placed onto the screen mesh (325) in alignment with the supply tube (310);
5. The fluid (140) from the supply tube (310) is flowed or dripped onto the product sample (330) producing an extract (1000) from the combination of the fluid (140) and the sample (330) which is drained from the extraction bottle (300) by a collection tube (335) and is then deposited into at least one collection bottle (400) at intervals determined by experimental design. Where the product sample (330) is a smokeless tobacco product sample (330) 1−n collection bottles (400) will used with bottles (400) changed at intervals of 1-5 min based on experimental design;
6. Extract the residual element from the product sample (330) by placing the product sample (330) in solvent effective for the type of product sample (330); where the product sample (330) is a smokeless tobacco product, the solvent in the preferred embodiment is 20 to 50 ml ethanol:5% NaOH mixture (9:1), and extract with ultrasound for 30 min.
7. Measure the target element in the extract (1000) by use of a measuring instrument suitable for the attributes of the target element in the extract (1000); for the preferred embodiment when the target element is nicotine from a smokeless tobacco product the measuring instrument is high-performance liquid chromatography (HPLC); the extract (1000) of nicotine in artificial saliva and the residual nicotine from ethanol NaOH mixture are determined using HPLC in the following conditions: • 1. Chromatograph column is a C18 reverse phase column • 2. Mobile phase is methanol and 20 mmol phosphate buffer (23:77, volume to volume) with 0.2% Triethylamine, pH=6.0 • 3. Flow rate is 1 ml/min • 4. Column temperature is 35° C.
Artificial saliva temperature was maintained at 37° C., pump flow rate 1 ml/min. Artificial saliva was made using the formula in Table 1, with a pH of 6.7. The artificial saliva collection intervals were at 1, 2, 3, 4, 5, 6, 7, 8, 9, 10, 12, 14, 16, 18, 20, 24, 28, 32 minutes after the extraction started.
Artificial saliva temperature was maintained at 37° C., pump flow rate 2 ml/min. Artificial saliva was made using the formula in Table 2, with a pH of 7.0. The artificial saliva collection intervals were at 1, 2, 3, 4, 5, 6, 7, 8, 9, 10, 12, 14, 16, 18, 20, 22, 24, 26, 28, 30 minutes after the extraction start.
Artificial saliva temperature was maintained at 37° C., pump flow rate 4 ml/min. Artificial saliva was made using the formula in Table 3, with a pH of 5.8. The artificial saliva collection intervals were at 2, 4, 6, 7, 8, 10, 12, 14, 16, 18, 20, 24, 28, and 32 minutes after the extraction start.

Where two headings read alike, the source gives them in different places.

For `CN1CCCC1c1cccnc1` (centres unmarked) [nicotine], the nicotine collected result is, setting by setting: (Example 1: 20 to 32 min extraction period, artificial saliva Table 1, pH 6.7, 37° C., flow 1 ml/min) “very little”; (Example 2: 20 to 30 min extraction period, artificial saliva Table 2, pH 7.0, 37° C., flow 2 ml/min) “very little”. The “nicotine released from tobacco (accumulated, of total nicotine)” value reads like this: (Example 1: after 20 min of extraction, artificial saliva Table 1, pH 6.7, 37° C., flow 1 ml/min) “over 90%”; (Example 2: first 20 min of extraction, artificial saliva Table 2, pH 7.0, 37° C., flow 2 ml/min) “over 95%”. In addition, the “average rate of nicotine release” value is “approximately 10%” (Example 1: first 5 minutes, artificial saliva Table 1, pH 6.7, 37° C., flow 1 ml/min, smokeless tobacco sachet); “approximately 4.3%” (Example 1: from 6 min to 10 min, artificial saliva Table 1, pH 6.7, 37° C., flow 1 ml/min); “approximately 1%” (Example 1: from 11 min to 20 min, artificial saliva Table 1, pH 6.7, 37° C., flow 1 ml/min). Also, the “nicotine released (of total nicotine)” value (Example 2: first 5 minutes, artificial saliva Table 2, pH 7.0, 37° C., flow 2 ml/min) is listed as 64%. Further, the “nicotine released (additional, of total nicotine)” value (Example 2: from 6 min to 10 min, artificial saliva Table 2, pH 7.0, 37° C., flow 2 ml/min) is 20%. Further, the “nicotine release (accumulated, of total nicotine)” value is, setting by setting: (Example 3: first 6 min) 82%; (Example 3: first 10 min) 92%.
